What was measured:
Assay in all cases: relative viability (nuclei count vs DMSO), 5 days (fraction); higher = more cells survive
Venetoclax + Crizotinib = compound: CC1(C)CCC(CN2CCN(c3ccc(C(=O)NS(=O)(=O)c4ccc(NCC5CCOCC5)c([N+](=O)[O-])c4)c(Oc4cnc5[nH]ccc5c4)c3)CC2)=C(c2ccc(Cl)cc2)C1 [Venetoclax] + C[C@@H](Oc1cc(-c2cnn(C3CCNCC3)c2)cnc1N)c1c(Cl)ccc(F)c1Cl [Crizotinib] (partner 1 µM)
Summary of the method: (§1)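 Medians of duplicate plates are given as relative viability. That measure is the nuclei count in treated wells divided by the count in vehicle wells. Counts were taken on 4× images of lung cancer cell lines in 1536-well plates, 5 days after pin-tool dosing the day after seeding with one drug alone or a fixed anchor-drug dose plus five library-drug doses (not always all listed) in √10 steps.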

[1] = compound: Cn1cnc2c(F)c(Nc3ccc(Br)cc3Cl)c(C(=O)NOCCO)cc21 [Selumetinib] + CC(=O)c1c(C)c2cnc(Nc3ccc(N4CCNCC4)cn3)nc2n(C2CCCC2)c1=O [Palbociclib] (partner 0.5 µM)
Summary of the method: as §1

Venetoclax + Linsitinib = compound: CC1(C)CCC(CN2CCN(c3ccc(C(=O)NS(=O)(=O)c4ccc(NCC5CCOCC5)c([N+](=O)[O-])c4)c(Oc4cnc5[nH]ccc5c4)c3)CC2)=C(c2ccc(Cl)cc2)C1 [Venetoclax] + C[C@]1(O)C[C@@H](c2nc(-c3ccc4ccc(-c5ccccc5)nc4c3)c3c(N)nccn32)C1 [Linsitinib] (partner 1 µM)
Summary of the method: as §1

Selumetinib + Decitabine = compound: Cn1cnc2c(F)c(Nc3ccc(Br)cc3Cl)c(C(=O)NOCCO)cc21 [Selumetinib] + Nc1ncn([C@H]2C[C@H](O)[C@@H](CO)O2)c(=O)n1 [Decitabine] (partner 2 µM)
Summary of the method: as §1

Row | Cell Line | relative viability (Venetoclax + Crizotinib; first compound 0.01 µM) | relative viability (Venetoclax + Crizotinib; first compound 0.03162 µM) | relative viability (Venetoclax + Crizotinib; first compound 0.1 µM) | relative viability (Venetoclax + Crizotinib; first compound 0.3162 µM) | relative viability (Venetoclax + Crizotinib; first compound 1 µM) | relative viability ([1]; first compound 0.02 µM) | relative viability ([1]; first compound 0.06325 µM) | relative viability ([1]; first compound 0.2 µM) | relative viability ([1]; first compound 0.6325 µM) | relative viability (Venetoclax + Linsitinib; first compound 0.01 µM) | relative viability (Venetoclax + Linsitinib; first compound 0.03162 µM) | relative viability (Venetoclax + Linsitinib; first compound 0.1 µM) | relative viability (Venetoclax + Linsitinib; first compound 0.3162 µM) | relative viability (Venetoclax + Linsitinib; first compound 1 µM) | relative viability (Selumetinib + Decitabine; first compound 0.02 µM) | relative viability (Selumetinib + Decitabine; first compound 0.06325 µM) | relative viability (Selumetinib + Decitabine; first compound 0.2 µM) | relative viability (Selumetinib + Decitabine; first compound 0.6325 µM)
1 | HCC-366 | 0.502 | 0.609 | 0.621 | 0.505 | 0.388 | 0.3 | 0.31 | 0.256 | 0.143 | 0.659 | 0.657 | 0.605 | 0.779 | 0.549 | 0.353 | 0.36 | 0.315 | 0.309
2 | HCC-827 | 0.982 | 0.923 | 0.924 | 0.94 | 0.837 | 0.497 | 0.469 | 0.465 | 0.401 | 0.997 | 0.973 | 1 | 0.978 | 0.87 | 0.362 | 0.317 | 0.351 | 0.448
3 | HOP-62 | 0.896 | 0.867 | 0.79 | 1.1 | 0.83 | 0.469 | 0.489 | 0.458 | 0.37 | 1.04 | 0.968 | 1.15 | 0.938 | 0.948 | 0.164 | 0.278 | 0.238 | 0.232
4 | IA-LM | 0.727 | 0.709 | 0.584 | 0.848 | 0.708 |  |  |  |  | 0.51 | 0.605 | 0.71 | 0.418 | 0.403 |  |  |  | 
5 | LC-2-ad | 0.46 | 0.465 | 0.439 | 0.466 | 0.51 | 0.504 | 0.547 | 0.492 | 0.453 | 0.807 | 0.904 | 0.785 | 0.848 | 0.798 | 0.73 | 0.817 | 0.781 | 0.776
6 | LCLC-97TM1 |  | 0.306 | 0.342 | 0.301 | 0.312 | 0.188 | 0.213 | 0.163 | 0.19 |  | 0.197 | 0.158 | 0.182 | 0.198 | 0.258 | 0.217 | 0.296 | 0.197
7 | LCLC-103H | 1.05 | 1.2 | 1.04 | 0.985 | 1.05 | 0.467 | 0.498 | 0.469 | 0.439 | 1.1 | 1.24 | 1.16 | 1.13 | 0.989 | 0.697 | 0.715 | 0.71 | 0.706
8 | LK-2 | 0.192 | 0.214 | 0.262 | 0.248 | 0.253 | 0.772 | 0.851 | 0.706 | 0.802 | 0.727 | 0.621 | 0.516 | 0.548 | 0.551 | 0.305 | 0.278 | 0.404 | 0.399
9 | LOU-NH91 | 0.751 | 0.751 | 0.756 | 0.729 | 0.697 | 0.583 | 0.611 | 0.546 | 0.535 | 0.887 | 0.986 | 0.882 | 0.975 | 0.895 | 0.782 | 0.777 | 0.723 | 0.751

Reference: the supplement of paper PMC10307832
